Active and inactive are the calls of the source. No cut-off for these calls is given here.
Experiments:
CHP-134 [1] = experiment: Cytotoxicity against human CHP-134 cells assessed as lethal concentration measured after 24 hrs by cell titer glo assay; format: functional; conditions: read-out: LC50 (the source's name)
IMR-32 [2] = experiment: Cytotoxicity against human IMR-32 cells assessed as lethal concentration measured after 24 hrs by cell titer glo assay; format: functional; conditions: read-out: LC50 (the source's name)
IMR-32 [3] = experiment: Cytotoxicity against human IMR-32 cells assessed as combination index measured after 24 hrs by cell titer glo assay; format: functional
[4] = target: T1, MAO-A (Amine oxidase [flavin-containing] A) (Homo sapiens, UniProt P21397); experiment: Inhibition of recombinant MAO-A (unknown origin) at 1 uM using luciferin as substrate preincubated for 1 hr followed by substrate addition measured after 20 min by microplate reader analysis relative to control; conditions: probe luciferin, time 80 min
T1 sequence (P21397 whole entry): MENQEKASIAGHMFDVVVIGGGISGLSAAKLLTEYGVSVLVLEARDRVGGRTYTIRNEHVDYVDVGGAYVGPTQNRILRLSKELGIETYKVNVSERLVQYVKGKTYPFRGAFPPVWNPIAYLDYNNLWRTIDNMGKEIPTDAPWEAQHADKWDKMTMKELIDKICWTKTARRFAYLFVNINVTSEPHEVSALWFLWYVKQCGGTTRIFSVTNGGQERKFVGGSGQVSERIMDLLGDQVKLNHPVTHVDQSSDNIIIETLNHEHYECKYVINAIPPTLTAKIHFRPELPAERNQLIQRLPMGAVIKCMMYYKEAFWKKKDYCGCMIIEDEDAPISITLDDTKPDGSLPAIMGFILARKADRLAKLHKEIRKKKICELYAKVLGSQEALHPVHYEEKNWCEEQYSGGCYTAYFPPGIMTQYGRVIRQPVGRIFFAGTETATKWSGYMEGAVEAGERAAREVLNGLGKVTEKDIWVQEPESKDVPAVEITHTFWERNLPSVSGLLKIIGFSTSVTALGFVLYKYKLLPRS

CHP-134 [5] = experiment: Cytotoxicity against human CHP-134 cells assessed as lethal concentration measured after 24 hrs in presence of bortezomib by cell titer glo assay; format: functional; conditions: read-out: LC50 (the source's name)
IMR-32 [6] = experiment: Cytotoxicity against human IMR-32 cells assessed as lethal concentration measured after 24 hrs in presence of bortezomib by cell titer glo assay; format: functional; conditions: read-out: LC50 (the source's name)
[7] = target: Spermine oxidase (Homo sapiens) (UniProt Q9NWM0); experiment: Inhibition of SMOX (unknown origin) at 50 uM using spermine as substrate preincubated for 1 hr followed by substrate addition and measured after 20 mins by luminometer analysis relative to control; conditions: time 80.0 min
Spermine oxidase (Homo sapiens), sequence (Q9NWM0 whole entry): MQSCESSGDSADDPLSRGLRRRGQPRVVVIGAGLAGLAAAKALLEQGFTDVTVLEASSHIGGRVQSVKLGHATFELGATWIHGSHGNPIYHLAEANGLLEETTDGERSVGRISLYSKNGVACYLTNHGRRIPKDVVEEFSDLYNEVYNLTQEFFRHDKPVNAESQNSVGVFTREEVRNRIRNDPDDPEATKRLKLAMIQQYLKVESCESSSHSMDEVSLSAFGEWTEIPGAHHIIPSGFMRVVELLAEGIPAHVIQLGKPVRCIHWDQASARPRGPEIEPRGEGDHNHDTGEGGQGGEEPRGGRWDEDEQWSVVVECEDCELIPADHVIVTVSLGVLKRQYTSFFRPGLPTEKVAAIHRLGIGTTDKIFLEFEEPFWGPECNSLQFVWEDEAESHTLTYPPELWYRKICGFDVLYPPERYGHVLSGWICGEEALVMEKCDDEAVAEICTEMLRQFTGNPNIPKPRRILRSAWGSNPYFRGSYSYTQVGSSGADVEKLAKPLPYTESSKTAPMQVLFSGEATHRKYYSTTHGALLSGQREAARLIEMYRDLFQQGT

IMR-32 [8] = experiment: Upregulation of LSD1 expression level in human IMR-32 cells by DAPI staining based analysis; format: functional, cell-based
CHP-134 [9] = experiment: Cytotoxicity against human CHP-134 cells assessed lethal concentration measured after 72 hrs by cell titer glo assay; format: functional; conditions: read-out: LC50 (the source's name)
IMR-32 [10] = experiment: Cytotoxicity against human IMR-32 cells assessed lethal concentration measured after 72 hrs by cell titer glo assay; format: functional; conditions: read-out: LC50 (the source's name)
CHP-134 [11] = experiment: Cytotoxicity against human CHP-134 cells measured after 24 hrs in presence of bortezomib by cell titer glo assay; format: functional, cell-based

Question: With `CC(C)C[C@H](NC(=O)[C@H](Cc1ccccc1)NC(=O)c1cnccn1)B(O)O` [BORTEZOMIB] as the compound, how does the CC50 (CHP-134 [1]) read?
Answer: 106 nM

Question: And the CC50 (IMR-32 [2])?
Answer: 19 nM

Question: What about the CI (IMR-32 [3]) of the same compound?
Answer: 0.37

Question: How did the inhibition at 20 min, 1 µM [4] turn out when `C#CCN(C)CCCOc1ccc(Cl)cc1Cl` [CLORGILINE] was run?
Answer: 92%

Question: For `COc1ccc(C2=C(c3ccc(C#N)c(F)c3)N=C(N3CCC(N)CC3)N(C)C2)cc1F`, which CC50 (CHP-134 [5]) is on record?
Answer: 16 nM

Question: What about the CC50 (IMR-32 [6]) of the same compound?
Answer: 8.4 nM

Question: With `O=S(=O)(Nc1ccc(Br)cc1-c1nnn[nH]1)c1ccc(-c2ccc(Cl)cc2)cc1` as the compound, how does the inhibition [7] read?
Answer: 12%

Question: And the Activity (IMR-32 [8])?
Answer: Active

Question: And the CC50 (CHP-134 [9])?
Answer: 11600 nM

Question: And the CC50 (IMR-32 [10])?
Answer: 3100 nM

Question: And the Activity (CHP-134 [11])?
Answer: Active

Question: What about the CC50 (CHP-134 [5]) of the same compound?
Answer: 60 nM

Question: And the CC50 (IMR-32 [6])?
Answer: 7 nM

— ChEMBL document CHEMBL5247583, “Synthesis and evaluation of small molecule inhibitors of LSD1 for use against MYCN-expressing neuroblastoma” (Eur J Med Chem, 2022)
